Data taken from patent publication US9943529B2, “Methods for reducing cellular proliferation and treating certain diseases” (BRIGHAM YOUNG UNIVERSITY, priority 2013, dated 2018).

How the values were obtained:
786-0 = test: cells; settings: Homo sapiens, 786-0, 48 h
NCI-ADR-RES = test: cells; settings: Homo sapiens, 48 h
DU-145 = test: cells; settings: Homo sapiens, DU-145, 48 h
MOLT-4 = test: NCI screen antiproliferative activity, sulforhodamine B, Leukemia panel; assay type: cell-based, human; settings: 48 hours, five 10-fold dilutions starting from 100 μM
HT29 = settings: 48 hours, five 10-fold dilutions starting from 100 μM
SK-OV-3 = test: cells; settings: Homo sapiens, SK-OV-3, 48 h
M14 = settings: 48 hours, five 10-fold dilutions starting from 100 μM
SF-295 [1] = test: cells; settings: Homo sapiens, SF-295, 48 h
SF-295 [2] = settings: 48 hours, five 10-fold dilutions starting from 100 μM
OVCAR-3 = settings: 48 hours, five 10-fold dilutions starting from 100 μM
NCI-H522 = settings: 48 hours, five 10-fold dilutions starting from 100 μM
TK-10 = settings: 48 hours, five 10-fold dilutions starting from 100 μM
SK-MEL-2 = test: cells; settings: Homo sapiens, SK-MEL-2, 48 h

Compound `CCCCCCCCNCCC[C@@H](C)[C@H]1CC[C@H]2[C@@H]3[C@H](OCCCN)C[C@@H]4C[C@H](OCCCN)CC[C@]4(C)[C@H]3C[C@H](OCCCN)[C@]12C` [CSA-13] has a GI50 (786-0) of 0.837 µM, a CC50 (786-0; read-out: LC50) of 5.4 µM and a GI50 (NCI-ADR-RES) of 1.83 µM. For the same compound, the CC50 (NCI-ADR-RES; read-out: LC50) was 36.5 µM, the GI50 (DU-145) was 1.14 µM and the CC50 (DU-145; read-out: LC50) was 4.85 µM. For the same compound, the TGI (MOLT-4) was 2.93 µM, the GI50 (MOLT-4; Homo sapiens) was 1.25 µM and the TGI (HT29) was 5.31 µM. The GI50 (SK-OV-3) was 3.45 µM, the CC50 (SK-OV-3; read-out: LC50) was 93.1 µM and the TGI (M14) was 3.52 µM. For the same compound, the GI50 (SF-295 [1]) was 0.496 µM, the CC50 (SF-295 [1]; read-out: LC50) was 24 µM and the TGI (SF-295 [2]) was 2.66 µM. The TGI (OVCAR-3) was 14.8 µM, the TGI (NCI-H522) was 10.5 µM and the TGI (TK-10) was 4.70 µM. For the same compound, the GI50 (SK-MEL-2) was 4.51 µM and the CC50 (SK-MEL-2; read-out: LC50) was over 100 µM.
